Patent US20070243201A1, “Method for Selecting Epitopes for Immunotherapy” (Igeneon Krebs-Immuntherapie Forschungs-und entwicklungs-AG, priority 2003, published 2007)

Test system: immune serum
Assay: Ep-CAM epitope mapping by solid phase peptide (spot) synthesis: binding of biotinylated serum IgG to immobilized decapeptides
Conditions: immune serum of a patient after active immunotherapy with mAb17-1A (EpCAM antibody), taken 71 days after immunization; compared with pre-serum of day 1, which does not show this binding or shows it to a slight degree only; FIG. 1
Experimental: Protein G Sepharose Fast Flow (Amersham Biosciences) was packed into an HR 5 column (inner diameter 5 mm; Amersham Biosciences). The column was equilibrated with 5 column volumes of PBS buffer at a flow rate of 0.33 ml/min. Subsequently, serum was loaded at the same flow rate, followed by washing with further 5 column volumes. Elution was carried out with 0.2 M acetic acid +20% ethylene glycol, pH 2.7. The eluate was taken up in 1 M sodium bicarbonate buffer and thus brought to pH 8.6.
One aliquot of the purified serum was incubated with NHS-LC biotin for 1 h at room temperature. Subsequently, the sample was re-buffered via a Sephadex G25 gel filtration column (PD-10, Amersham Biosciences) so as to separate the biotinylated […] from free […], on the one hand, and to further transfer it into a medium suitable for the test system.
The spot synthesis was carried out by means of a modified method according to Frank (Tetrahedron 48 (1992) 9217-9232). Whatman 540 cellulose was dried over night in the desiccator. The membrane was then functionalized for 3 h with 0.2 M Fmoc-β alanine, 0.24 M diisopropyl carbodiimide and 0.4 M 1-methyl-imidazole. After washing with 3× dimethylformamide (DMF), the Fmoc group was cleaved off by treatment with 20% piperidine in DMF. The peptides were synthesized by means of the AutoSpot Robot ASP222 (INTAVIS, Germany). As the first amino acid, always a further β-alanine spacer was introduced. After the first β-alanine coupling, the remaining free amino groups were acetylated with 2% acetic anhydride. As the amino acids, Fmoc-protected Opfp esters of the amino acids (O-pentafluorophenyl, Novabiochem), dissolved in N-methyl pyrrolidone at a concentration of 0.3 M were used. Each amino acid was spotted twice per cycle. After each cycle, the Fmoc group was cleaved off with piperidine, as described above, and then the membrane was washed 6× with DMF. After the synthesis of the last amino acid, it was again acetylated, and then the side protection groups were cleaved off. At first, the membrane was treated with 90% trifluoroacetic acid, 3% triisobutyl silane, 1% phenol, 2% water and 4% dichloromethane for 30 minutes. Subsequently, the membrane was washed 5× with DCM, 3× with DMF and methanol and dried. This was followed by a further cleavage by treatment with 50% trifluoroacetic acid, 3% triisobutyl silane, 1% phenol, 2% water and 44% dichloromethane for two hours. […]
Since the major immune response is provided in the form of IgG, IgG was purified from the sera via protein G Sepharose. […] The concentration of the biotinylated IgG was determined via photometric absorption measurement at 280 nm, and after the addition of 0.2% sodium azide the material was stored at 4° C. […]

Binding of immune serum to the 10 mer peptides, increasingly binds:
DLDPGQTLIY [compound 61]
DPKFITSILY [compound 45]
ALQKEITTRY [compound 42]
IADVAYYFEK [compound 53]
